SMILES strings stand for the structures. A value given as a limit tells only on which side of the number the result lay.

In one test the target is T1, GCS (Canis lupus familiaris, UniProt A0A8I3MXG6).
T1 sequence (A0A8I3MXG6 1-394): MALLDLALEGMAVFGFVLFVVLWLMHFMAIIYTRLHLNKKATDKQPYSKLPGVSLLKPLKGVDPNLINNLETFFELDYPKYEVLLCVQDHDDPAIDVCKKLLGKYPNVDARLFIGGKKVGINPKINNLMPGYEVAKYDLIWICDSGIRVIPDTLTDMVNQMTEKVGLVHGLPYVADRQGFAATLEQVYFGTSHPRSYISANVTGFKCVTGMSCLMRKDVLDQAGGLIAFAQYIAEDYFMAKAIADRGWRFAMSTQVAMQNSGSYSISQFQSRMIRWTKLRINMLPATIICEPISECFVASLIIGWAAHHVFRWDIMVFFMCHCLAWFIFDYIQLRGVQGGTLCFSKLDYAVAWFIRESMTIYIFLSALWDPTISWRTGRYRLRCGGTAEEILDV
The experiment in a line: Assay 1: GCS Enzymatic Assay (MDCK cell lysate, C6-NBD-Ceramide, LC/MS). The test is classed as biochemical, canine. As to conditions: Table 2; data marked by *. Summed up:
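LC/MS/MS measurement of glucosylceramide and NBD-ceramide after a 1 h, 37 °C reaction with 100 μM UDP-glucose and 10 μM C6-NBD-ceramide gave IC50s or percent inhibition.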
Take `O=C(N[C@H](CN1CCCC1)[C@H](O)c1ccc(OC2CC2)c(Cl)c1)C(F)(F)c1cccc(Oc2ccc(F)cc2)c1` [Compound 206, N-((1R,2R)-1-(3-chloro-4-cyclopropoxyphenyl)-1-hydroxy-3-(pyrrolidin-1-yl)propan-2-yl)-2,2-difluoro-2-(3-(4-fluorophenoxy)phenyl)acetamide]: the “% inhibition generated from Assay 1” value is “A* (the compound had a % inhibition of a percent inhibition of greater than or equal to about 50%)”.

Consider `O=C(N[C@H](CN1CCCC1)[C@H](O)c1ccc2c(c1)OCCO2)C(F)(F)c1csc(-c2ccc(F)cc2)n1` [Compound 211, N-((1R,2R)-1-(2,3-dihydrobenzo[b][1,4]dioxin-6-yl)-1-hydroxy-3-(pyrrolidin-1-yl)propan-2-yl)-2,2-difluoro-2-(2-(4-fluorophenyl)thiazol-4-yl)acetamide], for which the “% inhibition generated from Assay 1” value was “B* (the compound had a % inhibition of greater than or equal to about 3% but less than about 50%)”.

On to `O=C(N[C@H](CN1CCCC1)[C@H](O)c1ccc(OC2CC2)c(Cl)c1)C(F)(F)c1csc(-c2ccc(F)cc2)n1` [Compound 213, N-((1R,2R)-1-(3-chloro-4-cyclopropoxyphenyl)-1-hydroxy-3-(pyrrolidin-1-yl)propan-2-yl)-2,2-difluoro-2-(2-(4-fluorophenyl)thiazol-4-yl)acetamide], for which the “% inhibition generated from Assay 1” value is reported as “B* (the compound had a % inhibition of greater than or equal to about 3% but less than about 50%)”.

For the compound `O=C(N[C@H](CN1CCCC1)[C@H](O)c1ccc(OC2CC2)c(Cl)c1)C(=O)c1cnc(-c2ccc(F)cc2)s1` [Compound 215, N-((1R,2R)-1-(3-chloro-4-cyclopropoxyphenyl)-1-hydroxy-3-(pyrrolidin-1-yl)propan-2-yl)-2-(2-(4-fluorophenyl)thiazol-5-yl)-2-oxoacetamide], the “% inhibition generated from Assay 1” value is reported as “B* (the compound had a % inhibition of greater than or equal to about 3% but less than about 50%)”.

Consider `O=C(N[C@H](CN1CCCC1)[C@H](O)c1ccc(OC2CC2)c(Cl)c1)C(F)(F)c1ccc(-c2ccc(F)cc2)s1` [Compound 218, N-((1R,2R)-1-(3-chloro-4-cyclopropoxyphenyl)-1-hydroxy-3-(pyrrolidin-1-yl)propan-2-yl)-2,2-difluoro-2-(5-(4-fluorophenyl)thiophen-2-yl)acetamide], for which the “% inhibition generated from Assay 1” value is “B* (the compound had a % inhibition of greater than or equal to about 3% but less than about 50%)”.

`O=C(N[C@H](CN1CCCC1)[C@H](O)c1ccc(OC2CC2)c(Cl)c1)C(=O)c1ccc(-c2ccc(F)cc2)s1` [Compound 219, N-((1R,2R)-1-(3-chloro-4-cyclopropoxyphenyl)-1-hydroxy-3-(pyrrolidin-1-yl)propan-2-yl)-2-(5-(4-fluorophenyl)thiophen-2-yl)-2-oxoacetamide]: the “% inhibition generated from Assay 1” value is listed as “A* (the compound had a % inhibition of a percent inhibition of greater than or equal to about 50%)”.

Regarding `O=C(N[C@H](CN1CCCC1)[C@H](O)c1cc(F)c2c(c1)OCCO2)C(F)(F)c1csc(-c2ccc(F)cc2)n1` [Compound 221, 2,2-difluoro-N-((1R,2R)-1-(8-fluoro-2,3-dihydrobenzo[b][1,4]dioxin-6-yl)-1-hydroxy-3-(pyrrolidin-1-yl)propan-2-yl)-2-(2-(4-fluorophenyl)thiazol-4-yl)acetamide], the “% inhibition generated from Assay 1” value is on record as “A* (the compound had a % inhibition of a percent inhibition of greater than or equal to about 50%)”.

As to `O=C(N[C@H](CN1CCCC1)[C@H](O)c1ccc(OC2CC2)c(Cl)c1)C(F)(F)c1cnc(-c2ccc(F)cc2)s1` [Compound 222, N-((1R,2R)-1-(3-chloro-4-cyclopropoxyphenyl)-1-hydroxy-3-(pyrrolidin-1-yl)propan-2-yl)-2,2-difluoro-2-(2-(4-fluorophenyl)thiazol-5-yl)acetamide], the “% inhibition generated from Assay 1” value was “B* (the compound had a % inhibition of greater than or equal to about 3% but less than about 50%)”.

Turning to `Cn1ncc2cc(C(=O)C(=O)N[C@H](CN3CCCC3)[C@H](O)c3ccc(OC4CC4)c(Cl)c3)ccc21` [Compound 224, N-((1R,2R)-1-(3-chloro-4-cyclopropoxyphenyl)-1-hydroxy-3-(pyrrolidin-1-yl)propan-2-yl)-2-(1-methyl-1H-indazol-5-yl)-2-oxoacetamide], the “% inhibition generated from Assay 1” value was “A* (the compound had a % inhibition of a percent inhibition of greater than or equal to about 50%)”.

Consider `O=C(N[C@H](CN1CCCC1)[C@H](O)c1ccc(OC2CC2)c(Cl)c1)C(=O)c1ccc2sc(Cl)cc2c1` [Compound 225, N-((1R,2R)-1-(3-chloro-4-cyclopropoxyphenyl)-1-hydroxy-3-(pyrrolidin-1-yl)propan-2-yl)-2-(2-chlorobenzo[b]thiophen-5-yl)-2-oxoacetamide], for which the “% inhibition generated from Assay 1” value is “B* (the compound had a % inhibition of greater than or equal to about 3% but less than about 50%)”.

Staying with this test, now noted: Table 2; data without asterisk; read-out: IC50 (nM) generated from Assay 1.
As for `O=C(N[C@H](CN1CCCC1)[C@H](O)c1ccc(OC2CC2)c(F)c1)C(F)(F)c1ccc(-c2ccc(F)cc2)cc1` [Compound 204, N-((1R,2R)-1-(4-cyclopropoxy-3-fluorophenyl)-1-hydroxy-3-(pyrrolidin-1-yl)propan-2-yl)-2,2-difluoro-2-(4′-fluoro-[1,1′-biphenyl]-4-yl)acetamide], the concentration for half-maximal inhibition (IC50) (usually the point on the concentration scale where inhibition reaches its midpoint) was < 50 nM.

Turning to `Cn1ncc2cc(-c3ccc(C(=O)C(=O)N[C@H](CN4CCCC4)[C@H](O)c4ccc(OC5CC5)c(Cl)c4)cc3)ccc21` [Compound 205, N-((1R,2R)-1-(3-chloro-4-cyclopropoxyphenyl)-1-hydroxy-3-(pyrrolidin-1-yl)propan-2-yl)-2-(4-(1-methyl-1H-indazol-5-yl)phenyl)-2-oxoacetamide], the IC50 was < 50 nM.

As to `Cn1ncc2cc(-c3ccc(C(=O)C(=O)N[C@H](CN4CCCC4)[C@H](O)c4ccc5c(c4)OCCO5)cc3)ccc21` [Compound 207, N-((1R,2R)-1-(2,3-dihydrobenzo[b][1,4]dioxin-6-yl)-1-hydroxy-3-(pyrrolidin-1-yl)propan-2-yl)-2-(4-(1-methyl-1H-indazol-5-yl)phenyl)-2-oxoacetamide], the 50% inhibitory concentration (IC50) was < 50 nM.

`O=C(N[C@H](CN1CCCC1)[C@H](O)c1ccc(OC2CC2)c(F)c1)C(=O)c1ccc(-c2ccc(F)cc2)cc1` [Compound 208, N-((1R,2R)-1-(4-cyclopropoxy-3-fluorophenyl)-1-hydroxy-3-(pyrrolidin-1-yl)propan-2-yl)-2-(4′-fluoro-[1,1′-biphenyl]-4-yl)-2-oxoacetamide]: the IC50 was < 50 nM.

As to `O=C(N[C@H](CN1CCCC1)[C@H](O)c1ccc(OC2CC2)c(Cl)c1)C(=O)c1ccc2ccccc2c1` [Compound 209, N-((1R,2R)-1-(3-chloro-4-cyclopropoxyphenyl)-1-hydroxy-3-(pyrrolidin-1-yl)propan-2-yl)-2-(naphthalen-2-yl)-2-oxoacetamide], the 50% inhibitory concentration (IC50) was < 50 nM.

For the compound `O=C(N[C@H](CN1CCCC1)[C@H](O)c1cc(F)c2c(c1)OCCO2)C(F)(F)c1cccc(Oc2ccc(F)cc2)c1` [Compound 210, 2,2-difluoro-N-((1R,2R)-1-(8-fluoro-2,3-dihydrobenzo[b][1,4]dioxin-6-yl)-1-hydroxy-3-(pyrrolidin-1-yl)propan-2-yl)-2-(3-(4-fluorophenoxy)phenyl)acetamide], the IC50 was < 50 nM.

As to `Cn1ncc2cc(-c3ccc(C(F)(F)C(=O)N[C@H](CN4CCCC4)[C@H](O)c4ccc5c(c4)OCCO5)cc3)ccc21` [Compound 212, N-((1R,2R)-1-(2,3-dihydrobenzo[b][1,4]dioxin-6-yl)-1-hydroxy-3-(pyrrolidin-1-yl)propan-2-yl)-2,2-difluoro-2-(4-(1-methyl-1H-indazol-5-yl)phenyl)acetamide], the half-inhibitory concentration (IC50) was < 50 nM.

For `O=C(N[C@H](CN1CCCC1)[C@H](O)c1ccc(OC2CC2)c(Cl)c1)C(=O)c1ccc(-c2ccccn2)cc1` [Compound 214, N-((1R,2R)-1-(3-chloro-4-cyclopropoxyphenyl)-1-hydroxy-3-(pyrrolidin-1-yl)propan-2-yl)-2-oxo-2-(4-(pyridin-2-yl)phenyl)acetamide], the IC50 is < 50 nM.

As for `Cn1ncc2cc(C(=O)C(=O)N[C@H](CN3CCCC3)[C@H](O)c3ccc4c(c3)OCCO4)ccc21` [Compound 216, N-((1R,2R)-1-(2,3-dihydrobenzo[b][1,4]dioxin-6-yl)-1-hydroxy-3-(pyrrolidin-1-yl)propan-2-yl)-2-(1-methyl-1H-indazol-5-yl)-2-oxoacetamide], the half-maximal inhibitory concentration (IC50) was < 50 nM.

Turning to `Cn1ncc2cc(C(=O)C(=O)N[C@H](CN3CCCC3)[C@H](O)c3cc(F)c4c(c3)OCCO4)ccc21` [Compound 217, N-((1R,2R)-1-(8-fluoro-2,3-dihydrobenzo[b][1,4]dioxin-6-yl)-1-hydroxy-3-(pyrrolidin-1-yl)propan-2-yl)-2-(1-methyl-1H-indazol-5-yl)-2-oxoacetamide], the concentration for half-maximal inhibition (IC50) is < 50 nM.

`Cn1ncc2cc(-c3ccc(C(=O)C(=O)N[C@H](CN4CCCC4)[C@H](O)c4cc(F)c5c(c4)OCCO5)cc3)ccc21` [Compound 220, N-((1R,2R)-1-(8-fluoro-2,3-dihydrobenzo[b][1,4]dioxin-6-yl)-1-hydroxy-3-(pyrrolidin-1-yl)propan-2-yl)-2-(4-(1-methyl-1H-indazol-5-yl)phenyl)-2-oxoacetamide]: the half-maximal inhibitory concentration (IC50) was < 50 nM.

Turning to `Cn1ncc2cc(-c3ccc(C(=O)C(=O)N[C@H](CN4CCC4)[C@H](O)c4cc(F)c5c(c4)OCCO5)cc3)ccc21` [Compound 223, N-((1R,2R)-3-(azetidin-1-yl)-1-(8-fluoro-2,3-dihydrobenzo[b][1,4]dioxin-6-yl)-1-hydroxypropan-2-yl)-2-(4-(1-methyl-1H-indazol-5-yl)phenyl)-2-oxoacetamide], the half-inhibitory concentration (IC50) is < 50 nM.
